In PubChem BioAssay (NCI) one finds GI50 and TGI data, which are given here for 8 compounds.

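Method: 48-hour compound exposure of cells in 96-well plates, five concentrations, linear interpolation of endpoints. The concentration for 50% growth inhibition is given as GI50. TGI denotes the concentration required for complete inhibition of growth.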

Experiment in all cases: inhibition of tumour cell growth, NCI panel, 48 h
Test [1] concerns UACC-62 melanoma.
Test [2] deals with SK-OV-3 ovarian.
Test [3] concerns HOP-62 NSCLC.
Test [4] concerns SNB-19 CNS.
For test [5], the system named is SF-268 CNS.
The test system of test [6] is RPMI-8226 leukemia.
The subject of test [7] is SK-MEL-2 melanoma.
Test [8] relates to OVCAR-8 ovarian.
In test [9] the test system is UO-31 renal.
Test [10] relates to ACHN renal.

In the case of `CC(=O)[CH-]C(=O)c1ccccc1.CC(=O)[CH-]C(=O)c1ccccc1.CCOCC[O-].CCOCC[O-].[Ti+4]`, the GI50 in test [1] was 15.5 µM; in test [2], 25.2 µM; in test [3] it was 25.9 µM; in [4] it was 18.1 µM; in test [5], 13.8 µM; in test [6] it was 18 µM. Also, the GI50 is 14.2 µM in test [7], 19.6 µM in [8], 17.6 µM in test [9] and 31.6 µM in test [10]. In addition, the TGI came to 37.8 µM in test [1]; 74.9 µM in test [2]; 85.8 µM in test [3]; 38.6 µM in test [4]; 34.8 µM in test [5]; 58.7 µM in [6]. The TGI in test [7] is 29.6 µM; in test [8], 41.7 µM; in test [9] it was 49.5 µM; in [10] it was over 100 µM.
Consider `COc1ccc2c(c1)CC[C@H](O)/C2=C/c1cc(OC)c(OC)c(OC)c1`, for which the GI50 in [1] was 0.0403 µM; in test [2] it was 0.138 µM; in [3], 0.0876 µM; in test [4], 0.201 µM; in test [5], 0.198 µM; in test [6], 1.82 µM. The GI50 in test [7] was 17.8 µM; in test [8] it was 0.36 µM; in [9], 0.222 µM; in test [10], 0.227 µM. Further, the TGI is over 100 µM in [1]; over 100 µM in [2]; over 100 µM in [3]; over 100 µM in test [4]; over 100 µM in [5]; over 51.3 µM in test [6]. In addition, the TGI in test [7], in test [8], in test [9] and in test [10] was over 100 µM throughout.
As for `N#CC1=C(N)NC(N2CCOCC2)=NC12Nc1ccccc1N2`, the GI50 in [1] was 32.2 µM; in test [2], 58.1 µM; in [3], 6.09 µM; in test [4], 40 µM; in test [5] it was 21.6 µM; in [6], 24.2 µM. The GI50 in [7] was 20.1 µM; in test [8], 37.5 µM; in test [9], 12.5 µM; in test [10], 33.3 µM. Also, the TGI was 82.1 µM in test [1]; over 100 µM in test [2]; 32.5 µM in test [3]; over 100 µM in [4]; 51.1 µM in test [5]; over 100 µM in test [6]. Further, the TGI in test [7] was 47.4 µM; in test [8], over 100 µM; in test [9], 81.4 µM; in test [10] it was over 100 µM.
Turning to `CC[N+]1(C)CCC(O)(c2ccc(OC)cc2)C(C(=O)c2ccc(OC)cc2)C1` (stereo not given), the TGI turned out to be 38.4 µM in test [1]; 33.7 µM in test [2]; 34.1 µM in test [3]; 47.7 µM in test [4]; 56 µM in test [5]; 5.92 µM in test [6]. The TGI was determined as 34.3 µM in test [7], 59.4 µM in test [8], 33.6 µM in test [9] and 27.2 µM in test [10].
In the case of `COc1nc(N)nc2c1ncn2C1OC(CO)C(O)C1O` (stereo not given), the GI50 in [1] was over 5000 µM; in test [2], 2430 µM; in [3], 2010 µM; in test [4], over 5000 µM; in [5], over 5000 µM; in test [6], 3580 µM. Further, the GI50 in [7] is 2570 µM; in [8], over 5000 µM; in test [9], over 5000 µM; in test [10], 723 µM. Besides, the TGI in [1], in test [2], in [3], in [4], in [5] and in [6] was over 5000 µM each time. For the same compound, the TGI in [7], in [8], in test [9] and in test [10] was over 5000 µM each time.
As for `CC(C)(C)C(=O)OCC1CCC(n2cnc3c(=O)[nH]c(N)nc32)O1` (stereo not given), the TGI in test [1], in [2], in test [3], in [4], in test [5] and in test [6] was over 100 µM each time. Further, the TGI in test [7], in test [8], in [9] and in test [10] was over 100 µM throughout.
For `COC(=O)Cc1ccc(Oc2cnc3cc(F)c(F)cc3n2)cc1`, the GI50 in [1] was over 100 µM; in test [2], over 100 µM; in test [3], over 100 µM; in test [4], over 100 µM; in [5] it was over 100 µM; in test [6], 23.2 µM. Besides, the GI50 in test [7], in test [8], in test [9] and in [10] was over 100 µM each time. Moreover, the TGI was over 100 µM in test [1]; over 100 µM in test [2]; over 100 µM in [3]; over 100 µM in [4]; over 100 µM in test [5]; 81 µM in test [6]. For the same compound, the TGI in test [7], in test [8], in test [9] and in test [10] was over 100 µM in each case.
For `CN1C(=O)N[C@H]2[C@@H]3NC(=O)c4ccc(Br)n4[C@@H]3C[C@]21O`, the GI50 in test [1] is 0.0861 µM; in test [2], 1.37 µM; in [3], 0.117 µM; in [4], 0.0351 µM; in test [5], 0.115 µM; in test [6], 0.0831 µM. Also, the GI50 in [7] was 0.0568 µM; in [8], 0.259 µM; in [9], 1.81 µM; in test [10], 0.187 µM. For the same compound, the TGI in [1] was 1.18 µM; in test [2], 5.5 µM; in test [3] it was 1.09 µM; in test [4], 0.576 µM; in [5], 2.63 µM; in [6] it was 0.417 µM. Further, the TGI in test [7] came to 0.194 µM; in test [8], 1.93 µM; in [9], 6.75 µM; in test [10], 2.93 µM.
